# Measurements from ChEMBL document CHEMBL4177591, “Synthesis and evaluation of the inhibitory activity of the four stereoisomers of the potent and selective human γ-glutamyl transpeptidase inhibitor GGsTop” (Bioorg Med Chem Lett, 2017).
# Active and inactive are the calls of the source. The calls are words filed in the database; no cut-off is given here.
# Columns and labels:
# [1] = species on record: Homo sapiens; test: Inhibition of human GGT assessed as inactivation rate constant using gamma-Glu-AMC as substrate measured for 10 mins by fluorescence assay
# [2] = species on record: Homo sapiens; test: Inhibition of human GGT at 0.1 mM using gamma-Glu-AMC as substrate measured for 10 mins by fluorescence assay
Compound,K [2] [M⁻¹ s⁻¹],inhibition [1],other results
COP(=O)(CCC(N)C(=O)O)Oc1cccc(CC(=O)O)c1 (stereo not given),–,–,K [1]: 51 M⁻¹ s⁻¹
CO[P@](=O)(CC[C@@H](N)C(=O)O)Oc1cccc(CC(=O)O)c1,21.5,–,–
CO[P@](=O)(CC[C@H](N)C(=O)O)Oc1cccc(CC(=O)O)c1,174,–,–
CO[P@@](=O)(CC[C@@H](N)C(=O)O)Oc1cccc(CC(=O)O)c1,–,inactive,–
CO[P@@](=O)(CC[C@H](N)C(=O)O)Oc1cccc(CC(=O)O)c1,–,inactive,–
